Results taken from US4895844A, “Indole alkaloid compositions and their methods of use” (Harbor Branch Oceanographic Institution, Inc., priority 1989, dated 1990).

Experiments:
Assay type in all cases: cell-based
[1] = tested on: HCT-8 human colon tumor cells; test: Human tumor cell line assay, HCT-8 (colon); details: 120 hours, read-out: Activity at prescribed doses
Protocol: (§1) HUMAN TUMOR CELL LINE ASSAY
(§2) Maintenance of Cell Line HCT-8 human colon tumor cells are grown in RPMl 1640 medium (GIBCO). A-549 human lung carcinoma cells and MD-AMB-231 human breast cancer cells are cultured in Dulbecco medium (Biologos, Inc.). All media are supplemented with 10% fetal bovine serum and contain 50 ug/ml gentamycin. All human tumor cell lines are incubated at 5% CO2 at 37° and subcultured once a week. The seeding levels are 350,000 MCF-7 cells, 60,000 HCT-8 cells and 300,000 A-549 cells per T-25 Flask. Vinblastine is used as a positive control.
(§3) 2. Incubate in a CO2 -incubator for 48 hours.
(§4) 3. Add composition to each well and incubate for an additional 120 hours.
(§5) 4. Discard medium and stain with methylene blue (HCT-8) or crystal violet (A-549 and MD-AMB-231).
(§6) 5. Compare cell density of drug-treated well with that of the control (no drug added) as follows: ND (not detectable), >90%; 1+, 75-90%; 2+, 50-74%; 3+, 25-49%, 4+, >25% of control growth.

[2] = tested on: P388 mouse leukemia cells; test: P388 mouse leukemia cell assay; details: 48 hours
Protocol: P388 MOUSE LEUKEMIA CELL ASSAY
P388 mouse leukemia cells are grown in Dulbecco MEM medium with 10% horse serum, 4 mM glutamine, and 20 ug/ml gentamycin (Biologos, Inc.). Cells are incubated in 10% CO2 and subcultured 2 times per week.
1. Add composition to each well of a 24-well plate or tube and allow solvent to evaporate to dryness.
2. Add 2 ml (1.2×10^5) cells to each well or tube and mix.
3. Incubate in 10% CO2 at 37° for 48 hours.
4. Read plates with an inverted microscope, scoring activity from 1+ to 4+ as follows: ND (not detectable), >90%; 1+, 75-90%; 2+, 50-74%; 3+, 25-49%; 4+, <25% of control growth. Alternatively, the activity may be designated as IC50 concentration which is the concentration of composition required to inhibit 50% of cell growth on the plate.
Cell counts are performed on each tube and results are reported as percent of control.

[3] = tested on: MD-AMB-231 human breast cancer cells; test: Human tumor cell line assay, MD-AMB-231 (mammary); details: 120 hours, read-out: Activity at prescribed doses
Protocol: as §1, §2, §3, §4, §5, §6

[4] = tested on: A-549 human lung carcinoma cells; test: Human tumor cell line assay, A-549 (lung); details: 120 hours, read-out: Activity at prescribed doses
Protocol: as §1, §2, §3, §4, §5, §6

CN1CC(c2c[nH]c3c(Br)c(Br)cc(O)c23)NCC1c1c[nH]c2cc(Br)ccc12 (stereo not shown) [Biemnidin (1), biemnidin]
> 25%: activity at 10 µg/mL ([1]; HCT-8, 10 μg/ml) | activity at 50 µg/mL ([1]; HCT-8, 50 μg/ml) | activity at 10 µg/mL ([3]; MDA-MB-231, MD-AMB-231, 10 μg/ml) | activity at 50 µg/mL ([3]; MDA-MB-231, MD-AMB-231, 50 μg/ml) | activity at 10 µg/mL ([4]; A549, A-549, 10 μg/ml) | activity at 50 µg/mL ([4]; A549, A-549, 50 μg/ml)
> 90%: activity at 1 µg/mL ([1]; HCT-8, 1 μg/ml) | activity at 1 µg/mL ([3]; MDA-MB-231, MD-AMB-231, 1 μg/ml) | activity at 1 µg/mL ([4]; A549, A-549, 1 μg/ml)
15 µg/mL: IC50 [2]
